Measured values reported in patent publication US8263606B2 (Xenon Pharmaceuticals Inc., priority 2008, dated 2012).

Assays:
sodium channel = experiment: Guanidine influx assay (14C-guanidine radiotracer flux, in vitro); assay type: cell-based, human or rat; settings: guanidine influx assay using a known cell line that expresses a sodium channel
In short: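 Radiotracer read-out: intracellular 14C-guanidine counted after washing with guanidine-supplemented low-sodium buffer. Cells expressing human or rat channels get test agent plus aconitine activator and tracer, incubated at ambient temperature. Dilution series centred on 1 μM; IC50 by sigmoidal dose-response fit.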

CYP3A4 = CYP3A4 (Homo sapiens, UniProt P08684); experiment: Cytochrome P450 (CYP450) Inhibition Assay, CYP3A4 (Vivid fluorescence, BOMCC substrate); settings: human, P450 Baculosomes (recombinant CYP3A4), probe BOMCC (Vivid substrate)
Sequence of CYP3A4 (P08684 whole entry): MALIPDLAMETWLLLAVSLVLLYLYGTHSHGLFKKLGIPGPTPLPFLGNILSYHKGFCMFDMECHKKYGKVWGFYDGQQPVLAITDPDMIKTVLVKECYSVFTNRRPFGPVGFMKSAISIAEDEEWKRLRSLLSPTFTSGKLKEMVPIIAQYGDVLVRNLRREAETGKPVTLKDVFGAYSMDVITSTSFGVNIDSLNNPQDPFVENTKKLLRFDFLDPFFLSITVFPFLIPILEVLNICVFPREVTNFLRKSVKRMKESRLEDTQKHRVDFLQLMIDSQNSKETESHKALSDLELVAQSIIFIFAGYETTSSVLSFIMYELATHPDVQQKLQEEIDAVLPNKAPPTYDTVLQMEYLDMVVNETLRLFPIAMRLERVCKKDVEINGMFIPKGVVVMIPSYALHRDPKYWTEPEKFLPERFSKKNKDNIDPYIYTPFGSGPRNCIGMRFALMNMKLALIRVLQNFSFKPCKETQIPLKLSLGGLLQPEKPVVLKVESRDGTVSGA

SMILES | IC50 (sodium channel; activity level class) | melting point | inhibition at 10 µM (CYP3A4) | IC50 (sodium channel)
COc1ccc2c(c1)OCC21C(=O)N(Cc2cccnc2)c2ccccc21 (stereo not drawn) [Example 9.34, 6-methoxy-1′-(pyridin-3-ylmethyl)spiro[1-benzofuran-3,3′-indol]-2′(1′H)-one] | 1 to 100 nM | 164 to 165 °C | > 50% | –
O=C1N(Cc2ccc(OCc3ccccc3)cc2)c2ccccc2[C@]12COc1cc3c(cc12)OCCO3 [Example 9.39, (8S)-1′-[4-(Benzyloxy)Benzyl]-2,3-Dihydrospiro[Furo[2,3-g][1,4]Benzodioxine-8,3′-Indol]-2′(1′H)-One] | 100 to 1000 nM | 151 to 153 °C | < 50% | –
COc1ccc(CN2C(=O)C3(COc4cc5onc(C)c5cc43)c3ccccc32)cc1 (stereo not drawn) [Example 2.6, 1′-(4-methoxybenzyl)-3-methylspiro[furo[3,2-f][1,2]benzisoxazole-5,3′-indol]-2′(1′H)-one] | 1 to 100 nM | 138 to 139 °C | > 50% | –
O=C1N(Cc2ccccn2)c2ccccc2C12COc1cc3c(cc12)OCC3 (stereo not drawn) [Example 4.52, 1′-(pyridin-2-ylmethyl)-6,7-dihydrospiro[benzo[1,2-b:4,5-b′]difuran-3,3′-indol]-2′(1′H)-one] | 1 to 100 nM | 198 to 200 °C | < 50% | –
Cc1noc2cc3c(cc12)C1(CO3)C(=O)Nc2ccccc21 (stereo not drawn) [Example 3.6, 3-methylspiro[furo[3,2-f][1,2]benzisoxazole-5,3′-indol]-2′(1′H)-one] | 100 to 1000 nM | 226 to 227 °C | < 50% | –
CC(=O)N1C(=O)C2(COc3cc4c(cc32)OCCO4)c2ccccc21 (stereo not drawn) [Example 22, 1′-acetyl-2,3-dihydrospiro[furo[2,3-g][1,4]benzodioxine-8,3′-indol]-2′(1′H)-one] | – | 236 to 238 °C | < 50% | 1 to 100 nM
CC(C)N1CCOC(CN2C(=O)C3(COc4cc5c(cc43)OCCO5)c3ccccc32)C1 (stereo not drawn) [Example 11.103, 1′-{[4-(1-methylethyl)morpholin-2-yl]methyl}-2,3-dihydrospiro[furo[2,3-g][1,4]benzodioxine-8,3′-indol]-2′(1′H)-one] | – | 102 to 125 °C | > 50% | 100 to 1000 nM
O=C1N(Cc2ccc(N3CCOCC3)cn2)c2ccccc2C12COc1cc3c(cc12)OCCO3 (stereo not drawn) [Example 33.3, 1′-[(5-morpholin-4-ylpyridin-2-yl)methyl]-2,3-dihydrospiro[furo[2,3-g][1,4]benzodioxine-8,3′-indol]-2′(1′H)-one] | – | 204 to 206 °C | < 50% | 100 to 1000 nM
N#CCN1C(=O)C2(COc3cc4c(cc32)OCO4)c2ccccc21 (stereo not drawn) [Example 4.73, (2′-oxospiro[furo[2,3-f][1,3]benzodioxole-7,3′-indol]-1′(2′H)-yl)acetonitrile] | 1 to 100 nM | 170 to 172 °C | > 50% | –
O=C1N(Cc2ccc(-c3ccno3)cc2)c2ccccc2C12COc1cc3c(cc12)OCCO3 (stereo not drawn) [Example 4.97, 1′-(4-isoxazol-5-ylbenzyl)-2,3-dihydrospiro[furo[2,3-g][1,4]benzodioxine-8,3′-indol]-2′(1′H)-one] | 1 to 100 nM | 209 to 212 °C | < 50% | –
Cc1nc2cc3c(cc2s1)C1(CO3)C(=O)N(CC2CCOCC2)c2ccccc21 (stereo not drawn) [Example 4.57, 2-methyl-1′-(tetrahydro-2H-pyran-4-ylmethyl)spiro[furo[2,3-f][1,3]benzothiazole-7,3′-indol]-2′(1′H)-one] | 1000 to 10000 nM | 186 to 187 °C | > 50% | –
O=C1Nc2cc3c(cc2C12COc1cc4c(cc12)CCO4)OCCO3 (stereo not drawn) [Example 3.28, 2′,3′,5,6-tetrahydrospiro[benzo[1,2-b:5,4-b′]difuran-3,8′-[1,4]dioxino[2,3-f]indol]-7′(6′H)-one] | 1000 to 10000 nM | > 250 °C | > 50% | –
O=C1N(Cc2ccc(Cl)s2)c2ccccc2C12COc1ccc(OCc3ccccc3)cc12 (stereo not drawn) [Example 1.4, 5-(benzyloxy)-1′-[(5-chloro-2-thienyl)methyl]spiro[1-benzofuran-3,3′-indol]-2′(1′H)-one] | 1000 to 10000 nM | 132 to 135 °C | > 50% | –
COc1ncc(CN2C(=O)C3(COc4cc5c(cc43)OCO5)c3ccccc32)s1 (stereo not drawn) [Example 11.4, 1′-[(2-methoxy-1,3-thiazol-5-yl)methyl]spiro[furo[2,3-f][1,3]benzodioxole-7,3′-indol]-2′(1′H)-one] | – | 164 to 166 °C | > 50% | 1 to 100 nM
CN(C)c1ccc(CN2C(=O)C3(COc4cc5c(cc43)OCCO5)c3ccccc32)nc1 (stereo not drawn) [Example 33.4, 1′-{[5-(dimethylamino)pyridin-2-yl]methyl}-2,3-dihydrospiro[furo[2,3-g][1,4]benzodioxine-8,3′-indol]-2′(1′H)-one] | – | 229 to 236 °C | > 50% | 1 to 100 nM
COc1ccc(-c2ccc3c(c2)C2(CO3)C(=O)N(Cc3ccc(Cl)s3)c3ccccc32)cn1 (stereo not drawn) [Example 16.88, 1′-[(5-chloro-2-thienyl)methyl]-5-(6-methoxypyridin-3-yl)spiro[1-benzofuran-3,3′-indol]-2′(1′H)-one] | – | 60 to 62 °C | > 50% | 1000 to 10000 nM
O=C1N(Cc2cc(F)ccn2)c2ccccc2C12COc1cc3c(cc12)OCCO3 (stereo not drawn) [Example 4.110, 1-[(4-fluoropyridin-2-yl)methyl]-2,3-dihydrospiro[furo[2,3-g][1,4]benzodioxine-8,3′-indol]-2′(1′H)-one] | 1 to 100 nM | 228 to 231 °C | < 50% | –
CCC(CC)CNC(=O)c1cccc(CN2C(=O)C3(COc4cc5c(cc43)CCO5)c3ccccc32)c1 (stereo not drawn) [Example 12.3, N-(2-ethylbutyl)-3-[(2′-oxo-5,6-dihydrospiro[benzo[1,2-b:5,4-b′]difuran-3,3′-indol]-1′(2′H)-yl)methyl]benzamide] | – | 105 to 106 °C | > 50% | 100 to 1000 nM
O=C1OCCN1CCN1C(=O)C2(COc3cc4c(cc32)CCO4)c2ccccc21 (stereo not drawn) [Example 9.3, 1′-[2-(2-oxo-1,3-oxazolidin-3-yl)ethyl]-5,6-dihydrospiro[benzo[1,2-b:5,4-b′]difuran-3,3′-indol]-2′(1′H)-one] | 1000 to 10000 nM | 185 to 186 °C | > 50% | –
O=C1N(Cc2ccccn2)c2ccccc2C12COc1c(Cl)cc3c(c12)OCCO3 (stereo not drawn) [Example 4.126, 6-chloro-1′-(pyridin-2-ylmethyl)-2,3-dihydrospiro[furo[3,2-f][1,4]benzodioxine-9,3′-indol]-2′(1′H)-one] | 1000 to 10000 nM | 197 to 199 °C | > 50% | –
Cc1nc2cc3c(cc2s1)C1(CO3)C(=O)Nc2ccccc21 (stereo not drawn) [Example 1, 2-methylspiro[furo[2,3-f][1,3]benzothiazole-7,3′-indol]-2′(1′H)-one] | 1000 to 10000 nM | > 250 °C | < 50% | –
